“Also recorded” adds a separate entry of the source. Where two headings read alike, the source gives them in different places.

Experiment [1] deals with T1, mGPRC6A (mouse GPRC6A) (Mus musculus, UniProt Q8K4Z6).
T1 sequence (Q8K4Z6 21-928): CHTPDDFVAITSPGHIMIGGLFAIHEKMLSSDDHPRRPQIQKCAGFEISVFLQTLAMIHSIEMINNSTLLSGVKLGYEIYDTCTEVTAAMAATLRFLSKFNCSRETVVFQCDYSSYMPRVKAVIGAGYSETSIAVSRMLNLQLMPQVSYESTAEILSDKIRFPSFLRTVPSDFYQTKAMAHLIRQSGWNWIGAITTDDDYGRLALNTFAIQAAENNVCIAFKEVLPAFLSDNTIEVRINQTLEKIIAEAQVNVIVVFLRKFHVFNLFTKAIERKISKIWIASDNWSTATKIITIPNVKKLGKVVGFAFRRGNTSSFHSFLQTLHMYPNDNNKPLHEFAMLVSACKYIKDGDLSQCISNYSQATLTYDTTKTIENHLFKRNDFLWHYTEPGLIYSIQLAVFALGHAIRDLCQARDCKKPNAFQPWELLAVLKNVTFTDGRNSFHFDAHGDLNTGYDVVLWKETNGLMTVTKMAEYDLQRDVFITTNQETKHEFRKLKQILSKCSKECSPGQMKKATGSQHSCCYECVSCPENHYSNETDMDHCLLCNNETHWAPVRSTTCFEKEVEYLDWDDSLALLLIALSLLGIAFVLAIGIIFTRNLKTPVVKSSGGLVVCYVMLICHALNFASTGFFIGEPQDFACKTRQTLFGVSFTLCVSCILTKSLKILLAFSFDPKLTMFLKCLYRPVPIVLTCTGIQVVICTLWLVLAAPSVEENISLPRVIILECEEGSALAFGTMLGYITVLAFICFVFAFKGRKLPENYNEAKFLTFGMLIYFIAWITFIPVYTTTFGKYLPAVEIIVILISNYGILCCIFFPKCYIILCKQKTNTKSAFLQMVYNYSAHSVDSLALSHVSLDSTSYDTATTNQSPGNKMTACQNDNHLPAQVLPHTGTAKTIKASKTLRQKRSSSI
As to the kind of experiment: Inositol phosphate (IP-One HTRF) accumulation, FlpIn-TREx-HEK293-mGPRC6A cells. The settings on record: for EC50: 30 min, HTRF, HBSS pH 7.2, mean ± SEM of at least three independent experiments, read-out: pEC50, inositol phosphate accumulation (converted). Format: cell-based. The protocol: pcDNA 5/FRT/TO constructs were isogenically integrated into a FlpIn-TREx-HEK293 cell line (Life Technologies). FlpIn-TREx-HEK293-mGPRC6A and FlpIn-TREx-HEK293-hGPRC6A cells were then selected using 600 μg/ml hygromycin and 5 μg/ml blasticidin and grown in culture medium consisting of Dulbecco’s Modified Eagle Medium (DMEM), supplemented with 10% (v/v) foetal bovine serum (FBS) at 37°C in 5% CO2 and were sub-cultured in a 1:3 ratio every 3–4 days. Cells were cultured overnight in the presence of 1 μg/ml tetracycline to induce GPRC6A expression. […] 48 h after transfection, cells were selected using 3 μg/ml puromycin and grown as above.
Inositol phosphate (IPX) accumulation experiments were performed using the IP-One HTRF® assay kit (Cisbio, France). Briefly, 24h after transfection with G proteins (as above), 10^5 cells were seeded per well in PDL-coated, 96-well white plates and incubated overnight. Cells were then washed 2 x 2h at 37°C in HBSS buffer (pH 7.2) containing 20 mM HEPES, 3.5 mM NaHCO3, 1 mM CaCl2 and 0.1% (w/v) BSA. Test compounds were then prepared in the kit stimulation buffer containing 2 mM CaCl2; cells were then incubated with 70 μl of drugs for 30 min, after which 15 μl of both IP1-D2 and Ab-Cryp were added to the cells, followed by a 1 h incubation at RT. Plates were read using an Envision plate reader (Perkin Elmer), using an HTRF protocol. Results were calculated from the 665nm / 620nm HTRF ratio (Ratio = A665nm/A620nm x 10^4) and expressed as a percentage of the maximal response obtained.
Concentration-response data were analysed using a three or four parameter logistic function (Motulsky & Christopoulos, 2004) to generate estimates of agonist potency (LogEC50). Data for all HEK293 assays represent the mean ± SEM of at least three independent experiments (except cell impedance, n = 2). For GLP-1 release, the data represent mean ± SEM of three to five independent experiments (except for OCN, wash; n = 2). For insulin release assays, data represent the mean ± SEM of three independent experiments (except for islet studies; n = 2). Insulin release data were normalised to the response to vehicle in either low or high [glucose]. Statistical analysis for GLP-1 release data were performed by one-way ANOVA, followed by Sidak’s multiple comparisons test (treating wash / no wash datasets separately). Statistical analyses for insulin release data were performed by two-way ANOVA (with [glucose] and drug treatment as group variables), followed by Sidak’s multiple comparisons test. Where only high [glucose] groups were evaluated, statistical analysis was by one-way ANOVA followed by Sidak’s multiple comparisons test.

Experiment [2] concerns non-tetracycline induced or parental HEK293 cells. Kind of experiment: Inositol phosphate accumulation, parental or non-tetracycline-induced HEK293 cells. Conditions: G protein-transfected parental HEK293 or non-tetracycline-induced cells; Fig 1B.
Experiment [3] has as its system MIN6 or βTC6 cells. As to the kind of experiment: Insulin release, MIN6 or βTC6 cells (summary table). Format: cell-based, murine. Conditions: S1 Table. The protocol: MIN6 or βTC-6 cells were seeded in 24-well plates at 170,000 cells per well in DMEM (containing 4.5g/L glucose, 10 mM HEPES, 100 U/ml penicillin, 100 μg/ml streptomycin and 15% de-complemented FBS) and incubated at 37°C / 5% CO2 for 72 h. Cells were then washed with 500 μl PBS and incubated in 500 μl deprivation media (DMEM with zero glucose, 10 mM HEPES, 1 mM Na-pyruvate, 100 U/ml penicillin, 100 μg/ml streptomycin, 15% de-complemented FBS) for 2 h at 37°C. Media was aspirated and after washing with 500 μl PBS, cells were treated with 250 μl of Krebs buffer (250 mM NaCl, 5.9 mM KCl, 1.2 mM MgCl2, 1.3 mM CaCl2, 25 mM HEPES, 0.1% BSA (w/v), and 2 mM or 16.7 mM glucose; pH 7.4) in the presence or absence of test compound. After incubation for 2 h at 37°C, the assay was terminated by placing the plates on ice and supernatants were transferred to a 96-well plate in preparation for insulin ELISA (Alpco) following manufacturer’s instructions. The cell monolayer was washed twice with 500 μl of PBS and then lysed using 250 μl of 1 N NaOH prior to protein measurement by the method of Bradford (1976).

The test system of experiment [4] is mouse GPRC6A. Conditions: ref [13]; cited from earlier work. An excerpt:
Additional interest in GPRC6A has emerged due to several studies reporting that it mediates the metabolic and endocrine effects of the de-carboxylated form of the osteoblast-derived peptide, osteocalcin (OCN). […] Given these discrepancies, we sought to evaluate the pharmacology of human and mouse GPRC6A in a range of cell signalling assays ...

Take `NCCC[C@H](N)C(=O)O` [L-ornithine]: the EC50 was 100 µM in experiment [1] (co-expression of GαqG66D) and 1000 µM in experiment [1] (co-expression of wild-type Gαq). Moreover, the “potency of L-ornithine with GαqG66D compared to wild-type Gαq” value in experiment [1] (inositol phosphate accumulation) is given as “ten-fold higher potency”. Besides, the “inositol phosphate response in non-expressing cells” value in experiment [2] is reported as “absent in non-tetracycline induced or parental HEK293 cells”.

Regarding “OCN: osteoblast-derived peptide, osteocalcin; variant not specified at the place (YLYQWLGAPVPYPDPLEPRREVCELNPDCDELADHIGFQEAYRRFYGPV; UniProt P02818 52-100, looked up)”, the “Insulin release (summary)” value in experiment [3] was “Insulin release – response to L-aa. No response to OCN”. The “agonist activity of OCN at mouse GPRC6A” value in experiment [4] is given as “no agonist effect of OCN was evident in any of the assays profiled; also recorded: failed to replicate either the agonist activity of OCN”.
